Measured values as given in patent US6737383B1, “Herbicidal oxadiazolidines” (priority 1999, dated 2004).

Legend:
[1] = tested on: bedstraw; assay: Test B pre/postemergence bedstraw; assay type: in vivo, Galium aparine; conditions: for Bedstraw plant response rating: Postemergence
Procedure, shortened: (§1)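 Response is a visual 0-to-10 score relative to untreated plants, where 0 means no effect and 10 means complete control, taken twelve to sixteen days after application. Treatments went onto soil at planting and onto foliage of 1- to 4-leaf plants, using a surfactant-containing non-phytotoxic solvent.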

[2] = tested on: rape; assay: Test B pre/postemergence rape; assay type: in vivo, Brassica napus
Procedure, shortened: as §1

[3] = tested on: wild oat; assay: Test B pre/postemergence wild oat; assay type: in vivo, Avena fatua
Procedure, shortened: as §1

[4] = tested on: blackgrass; assay: Test B pre/postemergence blackgrass; assay type: in vivo, Alopecurus myosuroides
Procedure, shortened: as §1

[5] = tested on: smallflower flatsedge; assay: Test B flood test smallflower flatsedge; assay type: in vivo, Cyperus difformis
Procedure, shortened: (§2)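 Each value is a visual injury score relative to controls, with 10 meaning complete control and 0 no effect. Evaluation took place twelve to sixteen days after the 2-leaf-stage plants were treated and kept in the greenhouse.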

[6] = tested on: surinam grass; assay: Test B pre/postemergence surinam grass; assay type: in vivo, Brachiaria decumbens
Procedure, shortened: as §1

[7] = tested on: corn; assay: Test B pre/postemergence corn; assay type: in vivo, Zea mays
Procedure, shortened: as §1

[8] = tested on: sugar beet; assay: Test B pre/postemergence sugar beet; assay type: in vivo, Beta vulgaris
Procedure, shortened: as §1

[9] = tested on: cocklebur; assay: Test B pre/postemergence cocklebur; assay type: in vivo, Xanthium strumarium
Procedure, shortened: as §1

[10] = tested on: bamyardgrass; assay: Test B flood test barnyardgrass; assay type: in vivo, Echinochloa crus-galli
Procedure, shortened: as §2

[11] = tested on: velvetleaf; assay: Test B pre/postemergence velvetleaf; assay type: in vivo, Abutilon theophrasti
Procedure, shortened: as §1

[12] = tested on: soybean; assay: Test B pre/postemergence soybean; assay type: in vivo, Glycine max
Procedure, shortened: as §1

[13] = tested on: crabgrass; assay: Test B pre/postemergence crabgrass; assay type: in vivo, Digitaria sanguinalis
Procedure, shortened: as §1

[14] = tested on: purple nutsedge; assay: Test B pre/postemergence purple nutsedge; assay type: in vivo, Cyperus rotundus
Procedure, shortened: as §1

[15] = tested on: wheat; assay: Test B pre/postemergence wheat; assay type: in vivo, Triticum aestivum
Procedure, shortened: as §1

[16] = tested on: pigweed; assay: Test B pre/postemergence pigweed; assay type: in vivo, Amaranthus retroflexus
Procedure, shortened: as §1

[17] = Preemergence, Rate 62 g/ha, scale of 0 to 10 where 0 is no effect and 10 is complete control
[18] = Postemergence, Rate 125 g/ha, scale 0 to 10, 0 is no effect, 10 is complete control
[19] = Postemergence, Rate 250 g/ha, scale 0 to 10
[20] = Preemergence, Rate 125 g/ha, scale 0 to 10, 0 is no effect, 10 is complete control
[21] = Preemergence, Rate 250 g/ha, scale 0 to 10, 0 is no effect, 10 is complete control
[22] = Preemergence, Rate 500 g/ha, scale 0 to 10, 0 is no effect, 10 is complete control
[23] = Rate 62 g/ha, Postemergence, scale 0 to 10, 0 no effect, 10 complete control
[24] = Postemergence, Rate 500 g/ha, scale of 0 to 10 where 0 is no effect and 10 is complete control
[25] = Rate 62 g/ha, flood test species, Pre-emergence, visual evaluation after twelve to sixteen days
[26] = Rate 125 g/ha, under heading Pre-emergence, flood test species, visual evaluation after twelve to sixteen days
[27] = Rate 250 g/ha, Pre-emergence (flood test species), scale 0 to 10, 0 is no effect, 10 is complete control
[28] = Rate 500 g/ha, Pre-emergence, flood test species, scale 0 to 10 (0 no effect, 10 complete control)

With CC(C)N(C(=O)n1oc(=O)n(Cc2cnc(Cl)s2)c1=O)c1ccc(F)cc1 [Compound 482] the “Bedstraw plant response rating” value ([1]; Rate 125 g/ha, scale 0 to 10, 0 is no effect, 10 is complete control) was 0, the “Bedstraw plant response rating” value ([1]; Rate 250 g/ha, scale 0 to 10) was 0 and the “Plant response rating, Bedstraw” value [1, 17] was 0. For the same molecule, the “Bedstraw plant response rating” value ([1]; Rate 62 g/ha, scale 0 to 10, 0 no effect, 10 complete control) was 0, the “Rape plant response rating” value [2, 18] was 0 and the “Rape plant response rating” value [2, 19] was 0. The “Plant response rating, Rape” value [2, 17] was 0, the “Rape plant response rating” value [2, 20] was 0 and the “Rape plant response rating” value [2, 21] was 0. For the same molecule, the “Rape plant response rating” value [2, 22] was 0, the “Rape plant response rating” value [2, 23] was 0 and the “Wild oats plant response rating” value [3, 18] was 0. For the same molecule, the “Wild oats plant response rating” value [3, 19] was 0, the “Plant response rating, Wild oats” value [3, 17] was 0 and the “Wild oats plant response rating” value [3, 20] was 0. The “Wild oats plant response rating” value [3, 21] was 0, the “Wild oats plant response rating” value [3, 22] was 3 and the “Wild oats plant response rating” value [3, 23] was 0. The “Blackgrass plant response rating” value [4, 18] was 0, the “Blackgrass plant response rating” value [4, 19] was 0 and the “Blackgrass plant response rating” value [4, 24] was 0. For the same molecule, the “Plant response rating, Blackgrass” value [4, 17] was 0, the “Blackgrass plant response rating” value [4, 20] was 0 and the “Blackgrass plant response rating” value [4, 21] was 0. The “Blackgrass plant response rating” value [4, 22] was 4, the “Blackgrass plant response rating” value [4, 23] was 0 and the “Plant response rating, S. Flatsedge (0 to 10 scale, 0 is no effect, 10 is complete control)” value [5, 25] was 0. The “S. Flatsedge plant response rating (0 to 10 scale, 0 is no effect, 10 is complete control)” value [5, 26] was 0, the “S. Flatsedge plant response rating” value [5, 27] was 0 and the “S. Flatsedge plant response rating” value [5, 28] was 0. The “B. signalgrass plant response rating” value [6, 18] was 0, the “B. signalgrass plant response rating” value ([6]; Postemergence, Rate 250 g/ha, scale 0 to 10, 0 no effect, 10 complete control) was 0 and the “B. signalgrass plant response rating” value [6, 24] was 0. The “Plant response rating, B. signalgrass” value [6, 17] was 0, the “B. signalgrass plant response rating” value [6, 20] was 0 and the “B. signalgrass plant response rating” value [6, 21] was 0. The “B. signalgrass plant response rating” value [6, 22] was 0, the “B. signalgrass plant response rating” value [6, 23] was 0 and the “Corn plant response rating” value [7, 18] was 0. For the same molecule, the “Corn plant response rating” value [7, 19] was 0, the “Corn plant response rating” value [7, 24] was 0 and the “Plant response rating, Corn” value [7, 17] was 0. The “Corn plant response rating” value [7, 20] was 0, the “Corn plant response rating” value [7, 21] was 0 and the “Corn plant response rating” value [7, 22] was 0. For the same molecule, the “Corn plant response rating” value [7, 23] was 0, the “Sugarbeets plant response rating” value [8, 18] was 0 and the “Sugarbeets plant response rating” value [8, 19] was 0. The “Plant response rating, Sugarbeets” value [8, 17] was 0, the “Sugarbeets plant response rating” value [8, 20] was 0 and the “Sugarbeets plant response rating” value [8, 21] was 0. For the same molecule, the “Sugarbeets plant response rating” value [8, 22] was 0, the “Sugarbeets plant response rating” value [8, 23] was 0 and the “Cocklebur plant response rating” value [9, 18] was 0. The “Cocklebur plant response rating” value [9, 19] was 0, the “Cocklebur plant response rating” value [9, 24] was 0 and the “Plant response rating, Cocklebur” value [9, 17] was 0. The “Cocklebur plant response rating” value [9, 20] was 0, the “Cocklebur plant response rating” value [9, 21] was 0 and the “Cocklebur plant response rating” value [9, 22] was 0. The “Cocklebur plant response rating” value [9, 23] was 0, the “Plant response rating, Barnyardgrass (0 to 10 scale, 0 is no effect, 10 is complete control)” value [10, 25] was 0 and the “Barnyardgrass plant response rating (0 to 10 scale, 0 is no effect, 10 is complete control)” value [10, 26] was 0. The “Barnyardgrass plant response rating” value [10, 27] was 0, the “Barnyardgrass plant response rating” value [10, 28] was 0 and the “Velvetleaf plant response rating” value [11, 18] was 0. For the same molecule, the “Velvetleaf plant response rating” value [11, 19] was 0, the “Plant response rating, Velvetleaf” value [11, 17] was 0 and the “Velvetleaf plant response rating” value [11, 20] was 0. For the same molecule, the “Velvetleaf plant response rating” value [11, 21] was 0, the “Velvetleaf plant response rating” value [11, 22] was 2 and the “Velvetleaf plant response rating” value [11, 23] was 0. The “Soybean plant response rating” value [12, 18] was 1, the “Soybean plant response rating” value [12, 19] was 1 and the “Plant response rating, Soybean” value [12, 17] was 0. The “Soybean plant response rating” value [12, 20] was 0, the “Soybean plant response rating” value [12, 21] was 0 and the “Soybean plant response rating” value [12, 22] was 0. For the same molecule, the “Soybean plant response rating” value [12, 23] was 1, the “Crabgrass plant response rating” value [13, 18] was 0 and the “Crabgrass plant response rating” value [13, 19] was 1. For the same molecule, the “Crabgrass plant response rating” value [13, 24] was 3, the “Plant response rating, Crabgrass” value [13, 17] was 3 and the “Crabgrass plant response rating” value [13, 20] was 8. For the same molecule, the “Crabgrass plant response rating” value [13, 21] was 8, the “Crabgrass plant response rating” value [13, 22] was 8 and the “Crabgrass plant response rating” value [13, 23] was 0. The “Nutsedge plant response rating” value [14, 18] was 0, the “Nutsedge plant response rating” value [14, 19] was 0 and the “Plant response rating, Nutsedge” value [14, 17] was 0. For the same molecule, the “Nutsedge plant response rating” value [14, 20] was 0, the “Nutsedge plant response rating” value [14, 21] was 0 and the “Nutsedge plant response rating” value [14, 22] was 0. For the same molecule, the “Nutsedge plant response rating” value [14, 23] was 0, the “Wheat plant response rating” value [15, 18] was 0 and the “Wheat plant response rating” value [15, 19] was 0. The “Plant response rating, Wheat” value [15, 17] was 0, the “Wheat plant response rating” value [15, 20] was 0 and the “Wheat plant response rating” value [15, 21] was 0. The “Wheat plant response rating” value [15, 22] was 0, the “Wheat plant response rating” value [15, 23] was 0 and the “Redroot pigweed plant response rating” value [16, 18] was 0. For the same molecule, the “Redroot pigweed plant response rating” value [16, 19] was 2, the “Plant response rating, Redroot pigweed” value [16, 17] was 0 and the “Redroot pigweed plant response rating” value [16, 20] was 0. For the same molecule, the “Redroot pigweed plant response rating” value [16, 21] was 0, the “Redroot pigweed plant response rating” value [16, 22] was 0 and the “Redroot pigweed plant response rating” value [16, 23] was 0.
